Laboratory results reported in US20140263071A1, “METHOD FOR COLLECTING METALS” (CHEMEC OY AB, priority 2011, published 2014).
Where two headings read alike, the source gives them in different places.

Columns and labels:
[1] = Solubility of the compounds, molybdenum blue method, UV/Vis 880 nm (Example 6); assay type: physicochemical; details: saturated aqueous solution
Excerpt: The low solubility is achieved by using long carbon chain(s) or aromatic ring(s) in the bisphosphonate structure I. Advantageously, compound I contains 7-16 carbon atoms either in chain, branched chain or cyclic structure or in combination of these structural units between A and X, and preferably in the chain starting from the P-C-P bridging carbon and the number of heteroatomic functional groups excluding the phosphorous functionalities are limited to two or three groups. The solubility decreases even more if compound I contains functional groups which are capable to form twitter ions with each other. Typical examples of twitter ions are acids (e.g., —CO2H or —PO3H2) and bases (amines) in the same molecule. Solubilities of selected bisphosphonate compounds I were determined with UV/Vis spectrophotometer at 880 nm using molybdenum blue method (Finnish Standard Association SFS 3026: Determination of phosphate in water. Finnish Standard Association SFS, Helsinki Finland, 1986).
Solubilities of selected compounds were determined with UV/Vis Spectrophotometer at 880 nm using molybdenum blue method from saturated aqueous samples solutions (Finnish Standard Association SFS 3026: Determination of phosphate in water. Finnish Standard Association SFS, Helsinki Finland, 1986).

[2] = Concentration of diluted samples, recovery after 1:10000 dilution (Example 24); details: 1e 1 g in 10 liters
Experimental: A water solution (100 ml) containing 100 ppb of desired metallic element prepared from Merch Titrisol® standard was diluted to 10 liters of water, pH was adjusted and the mixture was treated with 1e (1 g) for 24 h with stirring. After filtration trough sintered disc (porosity G-4), the solids were decomposed by using microware digestion, the residue was dilution to known volume of water (10 ml) and metal concentrations were determined by using AAS method.

[3] = Expulsion of Cu^2+, Ni^2+ and Fe^3+ without and with activated carbon (Example 9); details: pH 3, without activated carbon
Experimental: (§1) A water solution (110 ml) containing known amount of single cationic element or elements, typically 0.5-200 ppm, was prepared from Merch Titrisol® standard solution. After adjusting pH by using acid (e.g. HCl or HNO3) or base (e.g. NaOH) to desired initial value, sample A (10 ml) was taken followed by adding 100 mg of selected solid complexation agent. The mixture was stirred at room temperature for 24 h and sample B (10 ml) was taken. Samples A and B were filtrated separately trough 0.2 μm syringe filter and the concentration of the studied element or elements in both solution was determined by using atomic absorption spectrophotometer. The expulsion percent was determined from the concentration differences between the sample solutions A and B.
Using the general procedure described above expulsion percent of Cu^2+, Ni^2+ and Fe^3+ cations were determined at pH 3, when compounds 2a, 2b, 5b, 6b and 6c were used as complexation agents. Experiments were repeated also by adding activated carbon (100 mg) to solution at the same time with the used complexation agent.

[4] = Collection of Cu^2+ ions from solution with the prepared bisphosphonates (Example 26); details: 1.00 ppm Cu^2+; pH 3; 50 mg bisphosphonate in 50 ml
Experimental: as §1
A solution containing 1.00 ppm of Cu^2+ cations at pH 3 was prepared and 50 ml of that solution was treated with the desired solid bisphosphonate (50 mg) using the procedure described in general procedure. Collection-% was determined for the following compounds (Cu^2+ collection-% in parenthesis): 3a (16%), 3b (88%), 3c (93%), 4 (95%), 5a (20%), 5b (18%), 5c (85%), 6b (48%), 6c (100%), 6d (100%), 7a (88%), 7b (100%), 8b (85%), 8c (88%), 8d (94%), 8e (73%) and 9b (76%).

[5] = Removal of Cr^3+ from acidic solution, TS 4 diluted 1:100 (Example 19); details: TS 4 diluted 1:100, pH 3.67, 1.0 g agent in 50 ml, 24 h
Experimental: A test solution containing 24000 mg/l of Na^+; 50-2000 mg/l of Ca^2+, Cr^3+, K^+ and Mg^2+; and trace amount of Al^3+, Fe^2/3+, Mn^2+, Ni^2+, Sr^2+, V^4+, and Zn^2+ cations were prepared.
TS 4 was diluted to 1:100 with water, pH (3.67) of the solution was determined and sample A was taken. A part (50 ml) of the diluted solution was treated with 1a, 6d or 7a (1.0 g) for 24 h with stirring at room temperature. After filtration trough 0.2 μm syringe filter, the expulsion per for Cr(III) was determined compared to original solution A. The results of expulsion per cents of Cr^3+ and some other elements are given in Table 13.

[6] = read-out: mg/l (solubility calculated for whole molecule)
[7] = read-out: mg/l P (solubility calculated as elemental phosphorus)

Row | Compound | solubility [1, 6] [mg/L] | solubility [1, 7] [mg/L] | Cu^2+ collection-% [4] [%] | also measured
1 | NCCCCCCCC(O)(P(=O)(O)O)P(=O)(O)O [Compound 1b, 8-Amino-1-hydroxyoctane-1,1-diyldiphosphonic acid] | 2220 | 426 | – | –
2 | NCCCCCCCCC(O)(P(=O)(O)O)P(=O)(O)O [Compound 1c, 9-Amino-1-hydroxynonane-1,1-diyldiphosphonic acid] | 2180 | 400 | – | –
3 | NCCCCCCCCCC(O)(P(=O)(O)O)P(=O)(O)O [Compound 1d, 10-Amino-1-hydroxydecane-1,1-diyldiphosphonic acid] | 227 | 40 | – | –
4 | NCCCCCCCCCCCC(O)(P(=O)(O)O)P(=O)(O)O [Compound 1e, 12-Amino-1-hydroxydodecane-1,1-diyldiphosphonic acid] | 31 | 5 | – | Yield [%] (recovery) ([2]; Cd^2+, pH 3.6): 98%; Yield [%] (recovery) ([2]; Cr^3+, pH 3.0): 98%; Yield [%] (recovery) ([2]; Cr^3+, pH 7.0): 97%; Yield [%] (recovery) ([2]; Hg^2+, pH 2.0): 93%; Yield [%] (recovery) ([2]; Hg^2+, pH 4.9): 94%; Yield [%] (recovery) ([2]; Hg^2+, pH 9.2): 94%; Yield [%] (recovery) ([2]; Hg^+, pH 2.0): 89%; Yield [%] (recovery) ([2]; Hg^+, pH 5.0): 92%; Yield [%] (recovery) ([2]; Hg^+, pH 9.2): 92%; Yield [%] (recovery) ([2]; Pb^2+, pH 3.2): 100%; Yield [%] (recovery) ([2]; Pb^2+, pH 5.0): 85%; Yield [%] (recovery) ([2]; UO2^2+, pH 3.0): 87%
5 | NCCCCCCCCCCCCCCCC(O)(P(=O)(O)O)P(=O)(O)O [Compound 1f, 16-Amino-1-hydroxyhexadecane-1,1-diyldiphosphonic acid] | 42 | 6 | – | –
6 | CNCCCCCCCCCCC(O)(P(=O)(O)O)P(=O)(O)O [Compound 2a, 1-Hydroxy-11-(methylamino)undecane-1,1-diyldiphosphonic acid] | 594 | 97 | – | Expulsion [%] Cu^2+ [3]: 16.4%; Expulsion [%] Fe^3+ [3]: 44.7%; Expulsion [%] Ni^2+ [3]: 13.3%
7 | O=P(O)(O)C(O)(CCCCCCCCCCO)P(=O)(O)O [Compound 2b, 1,11-Dihydroxyundecane-1,1-diyldiphosphonic acid] | 22900 | 3870 | – | Expulsion [%] Cu^2+ [3]: 100.0%; Expulsion [%] Fe^3+ [3]: 92.6%; Expulsion [%] Ni^2+ [3]: 6.9%
8 | CCCCCC(O)(P(=O)(O)O)P(=O)(O)O [Compound 3a, 1-Hydroxyhexane-1,1-diyldiphosphonic acid] | 54 | 12 | 16 | –
9 | CCCCCCCCC(O)(P(=O)(O)O)P(=O)(O)O [Compound 3b, 1-Hydroxynonane-1,1-diyldiphosphonic acid] | 5 | 1 | 88 | –
10 | CCCCCCCCCCC(O)(P(=O)(O)O)P(=O)(O)O [Compound 3c, 1-Hydroxyundecane-1,1-diyldiphosphonic acid] | – | 0.3 | 93 | –
11 | CCCCCCCC/C=C\CCCCCCCC(O)(P(=O)(O)O)P(=O)(O)O [Compound 4, (Z)-1-Hydroxyoctadec-9-ene-1,1-diyldiphosphonic acid] | – | – | 95 | –
12 | O=P(O)(O)C(O)(CCCCc1ccccc1)P(=O)(O)O [Compound 5a, 1-Hydroxy-5-phenylpentane-1,1-diyldiphosphonic acid] | – | 1.8 | 20 | –
13 | Nc1ccc(CCCC(O)(P(=O)(O)O)P(=O)(O)O)cc1 [Compound 5b, 4-(4-Aminophenyl)-1-hydroxybutane-1,1-diyldiphosphonic acid] | – | 79 | 18 | Expulsion [%] Cu^2+ [3]: 21.4%; Expulsion [%] Fe^3+ [3]: 56.3%; Expulsion [%] Ni^2+ [3]: 7.9%
14 | O=P(O)(O)C(O)(CCCCCCc1ccccc1)P(=O)(O)O [Compound 5c, 1-Hydroxy-7-phenylheptane-1,1-diyldiphosphonic acid] | – | 0.2 | 85 | –
15 | CCCCCCCCCCC(P(=O)(O)O)P(=O)(O)O [Compound 6b, Undecane-1,1-diyldiphosphonic acid] | – | 0.7 | 48 | Expulsion [%] Cu^2+ [3]: 1.3%; Expulsion [%] Fe^3+ [3]: 3.9%; Expulsion [%] Ni^2+ [3]: 17.2%
16 | CCCCCCCCCCCCC(P(=O)(O)O)P(=O)(O)O [Compound 6c, Tridecane-1,1-diyldiphosphonic acid] | – | 0.2 | 100 | Expulsion [%] Cu^2+ [3]: 20.8%; Expulsion [%] Fe^3+ [3]: 19.0%; Expulsion [%] Ni^2+ [3]: 20.8%
17 | CCCCCCCCCCCCCCCCC(P(=O)(O)O)P(=O)(O)O [Compound 6d, Heptadecane-1,1-diyldiphosphonic acid] | – | 0.03 | 100 | Expulsion [%] Ca^2+ ([5]; Ca^2+): 11%; Expulsion [%] Cr^3+ [5]: 100%; Expulsion [%] K^+ ([5]; K^+): 52%; Expulsion [%] Mg^2+ ([5]; Mg^2+): 80%; Expulsion [%] Na^+ ([5]; Na^+): 39%
18 | CCCCCCCCC(N)(P(=O)(O)O)P(=O)(O)O [Compound 7a, 1-Aminononane-1,1-diyldiphosphonic acid] | – | 0.08 | 88 | Expulsion [%] Cr^3+ [5]: 85%
19 | CCCCCCCCCC(N)(P(=O)(O)O)P(=O)(O)O [Compound 7b, 1-Aminodecane-1,1-diyldiphosphonic acid] | – | 0.05 | 100 | –
20 | C[N+](C)(C)CCCCCCCCCCC(O)(P(=O)(O)O)P(=O)(O)O.[Cl-] [Compound 8b, 11-Hydroxy-N,N,N-trimethyl-11,11-diphosphonoundecan-1-aminium chloride] | – | – | 85 | –
21 | CC(=O)NCCCCCCCCCCC(O)(P(=O)(O)O)P(=O)(O)O [Compound 8c, 11-Acetamido-1-hydroxyundecane-1,1-diyldiphosphonic acid] | – | – | 88 | –
22 | O=C(O)CCCCCCCCCCSCC(P(=O)(O)O)P(=O)(O)O [Compound 8d, 11-((2,2-diphosphonoethyl)thio)undecanoic acid] | – | – | 94 | –
23 | O=C(O)CCCCCNCC(P(=O)(O)O)P(=O)(O)O [Compound 8e, 6-((2,2-diphosphonoethyl)amino)hexanoic acid] | – | – | 73 | –
24 | CCCCCCCCCCCC(=O)OC(C)(P(=O)(O)O)P(=O)(O)O [Compound 9b, 1-(Dodecanoyloxy)ethane-1,1-diyldiphosphonic acid] | – | – | 76 | –
